# Data reported in patent publication US6730683B2, “Compounds of heteroaryl substituted imidazole, their pharmaceutical compositions and uses” (SmithKline Beecham Corporation, priority 1997, dated 2004).
# Experiments:
# [1] = system: human PGHS-2 protein expression in LPS stimulated human monocytes; experiment: Prostoglandin Endoperoxide Synthase-2 (PGHS-2) Assay; assay type: cell-based; settings: for inhibited LPS induced PGHS-2 protein expression (active in this assay): rank order potency similar to that for inhibiting cytokine production; for LPS induced PGHS-2 protein expression (inactive in this assay): up to 10 uM
# Protocol: The following assay describes a method for determining the inhibitory effects of compounds of Formula (I) on human PGHS-2 protein expression in LPS stimulated human monocytes.
# Human peripheral blood monocytes were isolated from buffy coats by centrifugation through Ficoll and Percoll gradients. Cells were seeded at 2×10^6/well in 24 well plates and allowed to adhere for 1 hour in RPMI supplemented with 1% human AB serum, 20 mM L-glutamine, Penicillin-Streptomycin and 10 mM HEPES. Compounds were added at various concentrations and incubated at 37° C. for 10 minutes. LPS was added at 50 ng/well (to induce enzyme expression) and incubated overnight at 37° C. The supernatant was removed and cells washed once in cold PBS. The cells were lysed in 100 μl of cold lysis buffer(50 mM Tris/HCl pH 7.5, 150 mM NaCl, 1% NP40, 0.5% sodium deoxycholate, 0.1% SDS, 300 ug/ml DNAse, 0.1% TRITON X-100, 1 mM PMSF, 1 mM leupeptin, 1 mM pepstatin). The lysate was centrifuged (10,000×g for 10 min. at 4° C.) to remove debris and the soluble fraction was subjected to SDS PAGE. analysis (12% gel). Protein separated on the gel were transferred onto nitrocellulose membrane by electrophoretic means for 2 hours at 60 volts. The membrane was pretreated for one hour in PBS/0.1% Tween 20 with 5% non-fat dry milk. After washing 3 times in PBS/Tween buffer, the membrane was incubated with a 1:2000 dilution of a monospecific antiserum to PGHS-2 or a 1:1000 dilution of an antiserum to PGHS-1 in PBS/Tween with 1% BSA for one hour with continuous shaking. The membrane was washed 3× in PBS/Tween and then incubated with a 1:3000 dilution of horseradish peroxidase conjugated donkey antiserum to rabbit Ig (Amersham) in PBS/Tween with 1% BSA for one hour with continuous shaking. The membrane was then washed 3× in PBS/Tween and the ECL immunodetection system (Amersham) was used to detect the level of expression of prostaglandin endoperoxide synthases-2.
# [2] = system: pro-inflammatory proteins including, IL-6, IL-8, GM-CSF and COX-2; settings: cited from earlier work
smiles,measurement,setting,value
C[C@@H]1C[C@H]2[C@@H]3CCC4=CC(=O)C=C[C@]4(C)[C@@]3(F)[C@@H](O)C[C@]2(C)[C@@]1(O)C(=O)CO [Dexamethasone],inhibited LPS induced PGHS-2 protein expression (active in this assay),[1],active
C[S+]([O-])c1ccc(-c2nc(-c3ccncc3)c(-c3ccc(F)cc3)[nH]2)cc1 (stereo not shown) [SB 203580],"synthesis of pro-inflammatory proteins including IL-6, IL-8, GM-CSF and COX-2",[2],decrease
O=C1CCN(c2ccccc2)N1 [phenidone],LPS induced PGHS-2 protein expression (inactive in this assay),[1],inactive
"C[S+]([O-])c1ccc(-c2nc3n(c2-c2ccncc2)CCC3)cc1 (stereo not shown) [2-(4-Methylsulfinylphenyl)-3-(4-pyridyl)-6,7-dihydro-(5H)-pyrrolo[1,2-a]imidazole]",LPS induced PGHS-2 protein expression (inactive in this assay),[1],inactive
"Fc1ccc(-c2nc3n(c2-c2ccncc2)CCS3)cc1 [6-(4-Fluoro-phenyl)-2,3-dihydro-5-(4-pyridinyl)imidazo[2,1-b]thiazole]",inhibited LPS induced PGHS-2 protein expression (active in this assay),[1],active
COc1ccc(C2CNC(=O)C2)cc1OC1CCCC1 (stereo not shown) [Rolipram],LPS induced PGHS-2 protein expression (inactive in this assay),[1],inactive
Fc1ccc(-c2nc3n(c2-c2ccncc2)CCS3)cc1 [SK&F 86002],"synthesis of pro-inflammatory proteins including IL-6, IL-8, GM-CSF and COX-2",[2],decrease
